Reference: patent US5726165A, “Derivatives of 4-(2-aminoethyl)phenoxymethyl-phosphonic and -phosphinic acid and pharmaceutical and veterinary uses therefor” (SmithKline Beecham p.l.c., priority 1994, dated 1998)
Where a name gives a salt, the structure may show the parent alone.

Key:
[1] = molecular target: T1, human β2-adrenoceptor (Homo sapiens, UniProt P07550); test: Antagonist binding at β2-adrenoceptors, displacement of [125I]-iodocyanopindolol; settings: CHO cell plasma membranes; from binding IC50 by Cheng-Prusoff equation; read-out: Beta-2 Ki
T1 construct: expressed in transfected cells; host or cells: CHO cells (stably transfected subclones; membranes)
T1 sequence (P07550 whole entry): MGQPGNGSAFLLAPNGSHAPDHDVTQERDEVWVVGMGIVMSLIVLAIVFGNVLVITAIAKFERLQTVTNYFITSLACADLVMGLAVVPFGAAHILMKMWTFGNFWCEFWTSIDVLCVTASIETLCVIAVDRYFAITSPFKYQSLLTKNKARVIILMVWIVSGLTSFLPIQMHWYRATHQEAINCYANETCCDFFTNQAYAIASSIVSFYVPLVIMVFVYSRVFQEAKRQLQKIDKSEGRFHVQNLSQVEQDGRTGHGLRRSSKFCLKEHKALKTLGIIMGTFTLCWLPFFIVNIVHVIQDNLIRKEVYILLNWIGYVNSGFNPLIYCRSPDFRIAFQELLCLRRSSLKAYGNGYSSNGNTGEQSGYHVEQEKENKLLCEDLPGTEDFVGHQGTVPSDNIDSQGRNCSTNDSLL
Procedure: (§1) Antagonist and Agonist Activity at Human β1, β2, and β3 -Adrenoceptors.
(§2) Subclones of CHO cells are stably transfected with each of the human β1, β2 and β3 -adrenoceptors^1. Cells are then disrupted by immersion in ice-cold lysis buffer (10 mM TRIS, 2 mM EDTA, pH 7.4) containing protease inhibitors leupeptin and benzamidine (5 μg/ml) and soyabean trypsin inhibitor (10 μg/ml). Membranes are prepared by the method of Bouvier el. al.^2 and stored in 1 ml aliquots in liquid N2 for future use.
(§3) Antagonist Binding at β1, and β2 -Adrenoceptors
(§4) Displacement of [^125 I]-iodocyanopindolol from CHO cell plasma membranes transfected with either the human β1, or β2 -adrenoceptors is carried out by the method of Blin et. al.^5. Ki values (nM) are calculated from the binding IC50 values for each agonist, using the Cheng-Prusoff equation.

[2] = molecular target: T2, human β3-adrenoceptor (Homo sapiens, UniProt P13945); test: β3-adrenoceptor-mediated adenylyl cyclase activity (agonist); type: biochemical; settings: CHO cell plasma membranes; for EC50: agonist concentration producing 50% activation of adenylyl cyclase, cAMP over 20 minutes, read-out: Beta-3 EC50; for Emax: maximum response relative to that produced by (-) isoprenaline, read-out: Beta-3 (IA), intrinsic activity
T2 construct: expressed in transfected cells; host or cells: CHO cells (stably transfected subclones; membranes)
T2 sequence (P13945 whole entry): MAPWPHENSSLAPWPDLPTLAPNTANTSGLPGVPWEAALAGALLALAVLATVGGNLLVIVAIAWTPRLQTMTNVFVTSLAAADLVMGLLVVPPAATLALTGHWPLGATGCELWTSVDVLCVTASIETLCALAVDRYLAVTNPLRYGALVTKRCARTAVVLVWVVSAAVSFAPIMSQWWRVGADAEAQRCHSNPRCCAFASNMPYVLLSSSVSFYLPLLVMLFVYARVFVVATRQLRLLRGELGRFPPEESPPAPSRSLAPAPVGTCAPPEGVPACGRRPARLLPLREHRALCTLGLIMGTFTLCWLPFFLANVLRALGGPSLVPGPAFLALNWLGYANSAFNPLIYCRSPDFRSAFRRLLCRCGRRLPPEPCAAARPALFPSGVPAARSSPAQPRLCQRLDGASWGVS
Procedure: as §1, §2
β3 -Adrenoceptor-Mediated Adenylyl Cyclase Activity
Adenylyl cyclase activity is assayed by the method of Kirkham et. al.^3 by the addition of 40 μl (70-80 μg protein) to the incubation medium of the above CHO cell plasma membranes transfected with the human β3 -adrenoceptor. cAMP produced over 20 minutes is separated from ATP by the method of Salomon et al.^4. Agonist EC50 values and intrinsic activities are expressed as the concentration of agonist producing 50% activation of adenylyl cyclase and the maximum response produced by each agonist relative to that produced by (-) isoprenaline respectively.

[3] = molecular target: T3, human β1-adrenoceptor (Homo sapiens, UniProt P08588); test: Antagonist binding at β1-adrenoceptors, displacement of [125I]-iodocyanopindolol; settings: CHO cell plasma membranes; from binding IC50 by Cheng-Prusoff equation; read-out: Beta-1 Ki
T3 construct: expressed in transfected cells; host or cells: CHO cells (stably transfected subclones; membranes)
T3 sequence (P08588 whole entry): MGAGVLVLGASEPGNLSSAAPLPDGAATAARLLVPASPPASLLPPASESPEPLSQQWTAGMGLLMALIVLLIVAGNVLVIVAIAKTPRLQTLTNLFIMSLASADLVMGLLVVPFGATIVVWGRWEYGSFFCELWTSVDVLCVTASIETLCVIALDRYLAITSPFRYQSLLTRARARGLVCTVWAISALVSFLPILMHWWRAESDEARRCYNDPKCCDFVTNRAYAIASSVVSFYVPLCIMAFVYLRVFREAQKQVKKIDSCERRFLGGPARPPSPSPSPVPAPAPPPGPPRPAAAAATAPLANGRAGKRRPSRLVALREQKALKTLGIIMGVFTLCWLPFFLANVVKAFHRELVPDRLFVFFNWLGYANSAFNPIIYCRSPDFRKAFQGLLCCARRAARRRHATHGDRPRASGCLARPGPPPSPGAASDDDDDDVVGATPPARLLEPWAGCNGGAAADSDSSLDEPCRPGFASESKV
Procedure: as §1, §2, §3, §4

Row | Ki [1] [µM] | EC50 [2] [µM] | Emax [2] [%] | Ki [3] [µM] | Compound
1 | 15 | 1.26 | > 100 | 155 | C[C@H](Cc1ccc(OCP(=O)(O)c2ccccc2)cc1)NC[C@H](O)COc1ccc(O)c(CO)c1 (racemic) [Example 21, (SR)-4-{2-[2-Hydroxy-3-(4-hydroxy-3-hydroxymethylphenoxy)propylamino]propyl}phenoxymethyl-phenylphosphinic acid, lithium salt]
2 | 10 | 1.1 | 70 | 21 | C[C@H](Cc1ccc(OCP(=O)(O)OCCCOCc2ccccc2)cc1)NC[C@H](O)COc1ccc(O)c(CO)c1 [Example 17, (SR)-4-{2-[2-Hydroxy-3-(4-hydroxy-3-hydroxymethylphenoxy)propylamino]propyl}phenoxymethylphosphonic acid, (3-benzyloxypropyl)ester, lithium salt]

Row | Compound | Ki [1] [µM] | EC50 [2] [µM] | Emax [2] [%] | Ki [3] [µM]
3 | O=P(O)(COc1ccc(CCNC[C@H](O)COc2ccc(O)cc2)cc1)C1CCCCC1 [Example 29, (S)-4-{2-[2-Hydroxy-3-(4-hydroxyphenoxy)propylamino]ethyl}phenoxymethylcyclohexylphosphinic acid, lithium salt] | 269 | 1.7 | 72 | 288
